Publication PMC9045296, “Development of Antifungal Peptides against Cryptococcus neoformans; Leveraging Knowledge about the cdc50Δ Mutant Susceptibility for Lead Compound Development” (Microbiology Spectrum, 2022)
In brackets after ≈: the same amount, converted by molar mass. Like-named read-outs stand apart in the source and are kept apart here. Residues, ends and D or L forms follow the SMILES beside them. *: point of attachment. Myristoyl = CCCCCCCCCCCCCC(=O)*

Assays:
[1] = system: C. neoformans wild-type strain H99; experiment: microbe, parasite or virus in culture; type: cell-based, Cryptococcus neoformans; details: for MIC: Cryptococcus neoformans
Description: (§1) Our assays followed standard CLSI protocol for broth microdilution assays using yeasts ([32]). Microbes were passaged in YPD media at 37°C with mixing for 2 days before harvesting with an inoculation loop to prepare monocultures on Sabouraud Dextrose Agar (SDA) plates. Monocultures on SDA plates were incubated for 2 days at 37°C before harvesting cells for microdilution assays. RPMI media (100 μL) was charged to each of the 96 wells in a 96-well plate, with an additional 100 μL in the first column. Peptide-DMSO solution (4 μL) at 12.8 mg/mL was charged to each of the wells in the first column. The 100 μL was serially diluted by a factor of 2 from the first column to the 11th column. Microbe inoculant was then prepared. An inoculation loop was used to transfer 1–3 colonies of cells to 1 mL phosphate buffer solution (PBS). The PBS and microbe solution was made uniform by vortex mixing. Cell concentration was computed by comparing the absorbance at 530 nm to 1x McFarland standard solution and multiplying the resulting ratio by 10^7 cell/mL conversion factor. Plate inoculant was prepared by diluting the PBS microbe solution to 5000 cell/mL, in RPMI media. A 100 μL aliquot of cells was transferred to each of the wells on the plate other than column 11 for the no growth control. The operating volume was 200 μL, with 500 CFU per well for a final concentration of 2.5*10^3 cells/mL. Inoculated plates were incubated for 48 h at 37°C and read at 24 and 48 h ([33]).

[2] = system: cdc50Δ mutant strain; type: cell-based, Cryptococcus neoformans; details: Table S1, drug alone
Description: as §1

[3] = system: C. neoformans wild-type strain H99; details: cited from earlier work
Description: (§2) Recently, mutation studies discovered an essential role of Cryptococcus lipid flippase in echinocandin resistance ([6]). The lipid flippase is composed of the core P4 type ATPase (P4-ATPase) and a regulatory subunit Cdc50 ([7]). […] This loop region of Cdc50 has been reported in other organisms to bind to the P4-ATPase to regulate flippase activity ([8]).

[4] = system: cdc50Δ mutant strain; details: cited from earlier work
Description: as §2

[5] = system: C. neoformans H99; type: cell-based, Cryptococcus neoformans
Description: (§3) Again, 200 μL was the operating volume, 500CFU per well, 2.5*10^3 cell/mL. Plates were incubated for 48 h at 37°C and read thereafter. The Fractional Inhibitory Concentration Index were calculated in Equation 1: FICIndex=FICA/MICA+FICB/MICB

[6] = system: ΔCDC50 mutant strain; type: cell-based, Cryptococcus neoformans
Description: as §3

[7] = system: human red blood cells (RBCs); experiment: Hemolysis assay; type: cell-based; details: human RBC, 1 h at 37°C, relative to Triton X-100
Description: Operating conditions were 100 μL and 2.5*10^8cell/mL. […] The plate was incubated at 37°C for 1 h. […] The scans were run in triplicate.

[8] = system: exofacial PS on C. neoformans cells; experiment: AF350-annexin V flow cytometry assay; type: cell-based, Cryptococcus neoformans; details: 0.128 mg/mL peptide, 5*10^6 cell/mL, 20 min at 25°C, triplicate; control 0.2 ± 0.1%
Description: We sought to determine whether the activities of the peptides were related to the lipid-flipping activity of the P4-ATPase. […] The intensity of the AF350-annexin V signal corresponds to concentration of PS on the exofacial side of the membrane. The propidium iodine signal corresponds to cell viability. […] Single cells were first selected and gated based on morphology to ensure homogeneity among the cell population (4A, 4B). We examined cells with low propidium iodine intensity (PI-A < 9 RU) and high AF350-annexin V intensity (Annexin V-A > 9 RU) (4C, 4D). Under these gating parameters there should be, respectively, low nonspecific cell death and high exofacial PS.
Stock microbes were defrosted from the –80°C freezer and were passed twice for 48 h each in YPD media. The YPD media was removed by spinning down and the supernatant was decanted. Pelletized cells were resuspended in 1 mL PBS media and washed for 5 min with incubation at 25°C and 250 RPM. Washed cells were spun down again and suspended in 1 mL of PBS solution. cells were diluted 20-fold into 1 mL fungal working solution in an eppendorf. Cell concentration was quantified via comparison to 1X McFarlain’s standard on a plate reader using the absorbance value at 530 nm. An aliquot of 1*10^6 cells in 100 μL was created (1*10^7cell/mL). A 100 μL aliquot of peptide working solution at 0.256 mg/mL was added to the cell suspension for final operating parameters of 200 μL, 0.128 mg/mL peptide, and 5*10^6cell/mL. The cells were incubated for 20 min at 25°C and 250RPM. Baseline and experimental samples were prepared in triplicate. Cells were stained using an operating concentration of 0.001 mg/mL Propidium Iodine (PI) and a 40-fold dilution of Alexa Fluor 350 labeled annexin V as per manufactures instructions. After staining the cells, samples were spun down and supernatant decanted. Cells were then fixed in 4% formaldehyde for 5 min. Fixed cells were spun down and supernatant decanted and resuspended in 400 μL 1% formaldehyde for flowcytometry. Samples were collected at a slow flow rate on a MACS Quant 10 device (Miltenyi Biotech, Auburn, CA) with 50,000 events collected per injection.

[9] = system: C. neoformans H99; experiment: SDS and plate spotting assay; type: cell-based, Cryptococcus neoformans; details: H99 pretreated with 128 μg/mL peptide for 1 h at 30°C; compared to untreated or DMSO controls
Description: Briefly, cultures of C. neoformans were grown in YPD and then spotted on YPD plates containing 0.03% SDS.
To test cell integrity, C. neoformans strains from 3 mL YPD overnight cultures were washed, resuspended, and serially diluted (1:10) in dH2O and spotted (5 μl) on YPD agar plates or YPD agar plates containing 0.03% SDS and incubated for 2 days at 30°C and 37°C. […] Of each strain, yeast cells were inoculated into liquid YPD with 128 μg/mL or 64 μg/mL peptide and co-incubated for 1h at 30°C. And then, 10-fold serial dilutions were prepared, and 5 μl of each was spotted on YPD and YPD agar plates containing 0.03% SDS. The results were photographed after a 48 h of incubation. Their growth was determined by serial dilutions and the fungal colonies were assessed by CFU numbers.

SMILES | MIC ([1]; Table S1, drug alone, wild type H99, read-out: MIC H99) [µg/mL] | MIC ([1]; drug alone, H99 wild type, CLSI broth microdilution, RPMI, 2.5*10^3 cells/mL, 37°C, read at 24 and 48 h, read-out: MIC) [µg/mL] | MIC ΔCDC50 [2] [µg/mL] | MIC value of caspofungin [3] [µg/mL] | MIC value of caspofungin [4] [µg/mL] | MIC H99 ([1]; Table S1, drug alone, wild type H99) [µg/mL] | MIC (FIC) of caspofungin in the presence of the AW9-Ma peptide ([5]; C. neoformans wild type, combination with caspofungin) [µg/mL] | FIC H99 Caspofungin ([5]; Table S1, concentration of caspofungin in combination with the peptide, H99) [µg/mL] | FIC H99 Peptide ([5]; Table S1, concentration of peptide in combination with caspofungin, H99) [µg/mL] | FIC ΔCDC50 Caspofungin ([6]; Table S1, concentration of caspofungin in combination with the peptide) [µg/mL] | FIC ΔCDC50 Peptide ([6]; Table S1, concentration of peptide in combination with caspofungin) [µg/mL] | hemolysis at the concentrations needed for synergy [7] | hemolytic activity (fractional lysis) ([7]; varying concentrations, absorbance 410 nm) | percentage of cells with low propidium iodine (PI-A < 9 RU) and high AF350-annexin V intensity (Annexin V-A > 9 RU) [8] | growth in terms of CFU on agar medium with 0.03% SDS [9]
CC[C@H](C)C[C@H](C)CCCCCCCCC(=O)N[C@H]1C[C@@H](O)[C@@H](NCCN)NC(=O)[C@@H]2[C@@H](O)CCN2C(=O)[C@H]([C@H](O)CCN)NC(=O)[C@H]([C@H](O)[C@@H](O)c2ccc(O)cc2)NC(=O)[C@@H]2C[C@@H](O)CN2C(=O)[C@H]([C@@H](C)O)NC1=O [caspofungin, reference compound] | 16 (≈ 14.6 µM) | 16 (≈ 14.6 µM) | 4 (≈ 3.66 µM) | 16 | 4 |  |  |  |  |  |  |  |  |  | 
CCCCCCCCCCCCCC(=O)N[C@@H](Cc1c[nH]c2ccccc12)C(=O)NCC(=O)NCC(=O)N[C@H](C(=O)N[C@@H](CCCCN)C(=O)N[C@@H](CCCCN)C(=O)N[C@@H](CC(N)=O)C(=O)N[C@@H](Cc1ccc(O)cc1)C(=O)N[C@@H](C)C(=O)O)[C@@H](C)CC [AW9-Ma] (Myristoyl-WGGIKKNYA-OH) |  |  |  |  |  | 64 (≈ 51.3 µM) | 4 | 4 | 16 | 0.125 | 0.125 | low amounts of hemolysis | concentrate-dependent minimal amount of hemolysis | 67.6% ± 2.3 | significantly reduced growth
